Laboratory results published in patent US7026281B1, “Antagonistic analogs of GH-RH inhibiting IGF-I and -II” (The Administrators of the Tulane Educational Fund, priority 1998, dated 2006).
pKi: −log10 of the molar value. Marks after values point to notes of the source that are not given here. Square brackets hold non-standard residues; d marks the D form. Peptide text beside a SMILES is read from it. * marks the point of attachment. Phe(4-Cl) = N[C@@H](Cc1ccc(Cl)cc1)C(=O)O; hArg = N=C(N)NCCCC[C@H](N)C(=O)O; Nle = CCCC[C@H](N)C(=O)O; Abu = CC[C@H](N)C(=O)O; PhAc = O=C(Cc1ccccc1)*

Experiments:
[1] = tested on: Estrogen independent MXT mouse mammary tumors; assay: MXT mouse mammary tumors in BDF mice; assay type: in vivo; conditions: for Tumor weights: day 18; for Number of surviving mice: groups of 10
Experimental: Estrogen independent MXT tumors were transplanted sc. to female BDF mice. One day after transplantation, the mice were divided into groups of 10 animals each, and the treatment was started. The mice in groups 1, 2, 3, and 4 received single injections daily of various GH-RH antagonists sc. at 20 μg dose per day for 18 days. In groups 5 and 6, the peptides were administered by Alzet osmotic pumps releasing a daily amount of 20 μg peptide. Tumors were measured regularly, and tumor volume was calculated. The mice were sacrificed on day 18 and tumor weights were measured.

[2] = biological target: T1, rat pituitary GH-RH receptors (Rattus norvegicus, UniProt Q02644); assay: GH-RH radioreceptor binding assay, rat anterior pituitary membrane homogenates; conditions: for pKi: competition with [His1,125I-Tyr10,Nle27]hGH-RH(1–32)NH2; for R.A. (relative affinity compared to Standard antagonist): ratio of Ki values
T1 construct: from tissue; host or cells: anterior pituitary of male Sprague-Dawley rats, crude membrane homogenates
T1 sequence (Q02644 23-464): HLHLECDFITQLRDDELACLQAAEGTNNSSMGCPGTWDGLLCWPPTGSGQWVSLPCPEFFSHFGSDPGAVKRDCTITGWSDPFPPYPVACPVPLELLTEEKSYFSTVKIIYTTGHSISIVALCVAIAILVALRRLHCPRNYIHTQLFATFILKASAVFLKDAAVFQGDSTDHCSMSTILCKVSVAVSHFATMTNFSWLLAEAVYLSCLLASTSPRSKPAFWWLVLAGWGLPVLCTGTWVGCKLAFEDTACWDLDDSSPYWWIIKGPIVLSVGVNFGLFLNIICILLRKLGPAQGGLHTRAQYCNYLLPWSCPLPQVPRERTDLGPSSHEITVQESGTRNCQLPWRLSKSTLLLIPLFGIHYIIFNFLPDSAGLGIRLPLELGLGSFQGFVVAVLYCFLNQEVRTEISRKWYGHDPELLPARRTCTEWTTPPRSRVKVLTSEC
How it was run: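 Antagonists competed with [His^1,^125I-Tyr^10,Nle^27]hGH-RH(1–32)NH2 for binding to crude anterior pituitary membranes from male Sprague-Dawley rats, with γ-counting of the pellet. Ki came from Munson–Rodbard analysis. Relative affinity is the Ki of the test antagonist divided by the Ki of standard [Ac-Tyr^1,D-Arg^2]hGH-RH(1–29)NH2.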

[3] = tested on: hGH-RH(1–29)NH2 induced GH release; assay: Inhibition of GH release in superfused rat pituitary system; assay type: cell-based; conditions: for Inhibition of GH release (%) 30 min / Inhibition of GH release (%) 60 min / Inhibition of GH release (%) 90 min / Inhibition of GH release (%) 120 min / Inhibition of GH release (%) 0 min: antagonist 30 nM; for Inhibition of GH release (%) 30 min: 1 nM hGH-RH(1–29)NH2 30 min later; for Inhibition of GH release (%) 60 min: 1 nM hGH-RH(1–29)NH2 60 min later; for Inhibition of GH release (%) 90 min: 1 nM hGH-RH(1–29)NH2 90 min later; for Inhibition of GH release (%) 120 min: 1 nM hGH-RH(1–29)NH2 120 min later; for Inhibition of GH release (%) 0 min: 1 nM hGH-RH(1–29)NH2 at 0 min
How it was run: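 Superfused rat pituitary cells preincubated 9 min with peptide, then challenged for 3 min with 1 nM hGH-RH(1–29)NH2 at 0, 30, 60, 90 and 120 min. Rat GH measured by double-antibody RIA; net integral GH responses expressed as percent of the original 1 nM GH-RH-induced response.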

[4] = Alzet osmotic pump, 20 μg daily
[5] = single daily sc. injections, 20 μg per day

Compound | Tumor volume (mm^3) On day 14 [1, 4] | Tumor volume (mm^3) On day 18 [1, 4] | Tumor weights [1, 4] [mg] | Number of surviving mice [1, 4] | Tumor volume (mm^3) On day 14 [1, 5] | Tumor volume (mm^3) On day 18 [1, 5] | Tumor weights [1, 5] [mg] | Number of surviving mice [1, 5] | pKi [2] | R.A. (relative affinity compared to Standard antagonist) [2] | Inhibition of GH release (%) 30 min [3] [%] | Inhibition of GH release (%) 60 min [3] [%] | Inhibition of GH release (%) 90 min [3] [%] | Inhibition of GH release (%) 120 min [3] [%] | Inhibition of GH release (%) 0 min [3] [%] | Duration of complete inhibition of the GH-RH induced GH release ([3]; standard test conditions) [min]
CCCC[C@H](NC(=O)[C@@H](NC(=O)[C@H](CC(=O)O)NC(=O)[C@H](CCC(N)=O)NC(=O)[C@H](CC(C)C)NC(=O)[C@H](CC(C)C)NC(=O)[C@H](CCCCN)NC(=O)[C@H](CCCNC(=N)N)NC(=O)[C@H](C)NC(=O)[C@H](CO)NC(=O)[C@H](CC(C)C)NC(=O)[C@H](CCC(N)=O)NC(=O)[C@H](CC)NC(=O)[C@H](CC(C)C)NC(=O)[C@@H](NC(=O)[C@H](CCCCN)NC(=O)[C@H](CCCNC(=N)N)NC(=O)[C@H](Cc1ccc(O)cc1)NC(=O)[C@H](CCCNC(=N)N)NC(=O)[C@H](CC(N)=O)NC(=O)[C@@H](NC(=O)[C@H](Cc1ccc(Cl)cc1)NC(=O)[C@@H](NC(=O)[C@H](C)NC(=O)[C@H](CC(=O)O)NC(=O)[C@@H](CCCNC(=N)N)NC(=O)[C@H](Cc1ccc(O)cc1)NC(=O)Cc1ccccc1)[C@@H](C)CC)[C@@H](C)O)C(C)C)[C@@H](C)CC)C(=O)N[C@H](CCCNC(=N)N)C(=O)N[C@@H](CCCCNC(=N)N)C(N)=O [Peptide 1, [PhAc^0, D-Arg^2, Phe(pCl)^6, Arg^9, Abu^15, Nle^27, D-Arg^28, Har^29]hGH-RH(1–29)NH2] (PhAc-Y[dR]DAI[Phe(4-Cl)]TNRYRKVL[Abu]QLSARKLLQDI[Nle][dR][hArg]-NH2) | 1329 ± 327** mm^3 | 3403 ± 584** mm^3 | 4810 ± 645 | 7 | 2924 ± 654 mm^3 | 4373 ± 381** mm^3 | 6964 ± 676 | 6 | 10.36 | 67 | 100 | 100 | 100 | 94 | 100 | 90
CCCC[C@H](NC(=O)[C@@H](NC(=O)[C@H](CC(=O)O)NC(=O)[C@H](CCC(N)=O)NC(=O)[C@H](CC(C)C)NC(=O)[C@H](CC(C)C)NC(=O)[C@H](CCCCN)NC(=O)[C@H](CCCNC(=N)N)NC(=O)[C@H](C)NC(=O)[C@H](CO)NC(=O)[C@H](CC(C)C)NC(=O)[C@H](CCC(N)=O)NC(=O)[C@H](CC)NC(=O)[C@H](CC(C)C)NC(=O)[C@@H](NC(=O)[C@H](CCCCN)NC(=O)[C@H](CCCNC(=N)N)NC(=O)[C@H](Cc1ccc(OC)cc1)NC(=O)[C@H](CCCCNC(=N)N)NC(=O)[C@H](CC(N)=O)NC(=O)[C@@H](NC(=O)[C@H](Cc1ccc(Cl)cc1)NC(=O)[C@@H](NC(=O)[C@H](C)NC(=O)[C@H](CC(=O)O)NC(=O)[C@@H](CCCNC(=N)N)NC(=O)[C@H](Cc1ccc(O)cc1)NC(=O)Cc1ccccc1)[C@@H](C)CC)[C@@H](C)O)C(C)C)[C@@H](C)CC)C(=O)N[C@H](CCCNC(=N)N)C(=O)N[C@@H](CCCCNC(=N)N)C(N)=O [Peptide 3, [PhAc^0, D-Arg^2, Phe(pCl)^6, Har^9, Tyr(Me)^10, Abu^15, Nle^27, D-Arg^28, Har^29]hGH-RH(1–29)NH2] (PhAc-Y[dR]DAI[Phe(4-Cl)]TN[hArg]Y(Me)RKVL[Abu]QLSARKLLQDI[Nle][dR][hArg]-NH2) | 1688 ± 220** mm^3 | 4272 ± 295** mm^3 | 5939 ± 453 | 8 | 1902 ± 349** mm^3 | 3465 ± 607** mm^3 | 5266 ± 906 | 8 | 10.17 | 43 | 98 | 91 | 92 | 87 | 85 | –
